Source: patent US6914045B2, “Glycopeptide antibiotics” (Wyeth Holdings Corporation, priority 2001, dated 2005)
Converted amounts (≈) assume the structure as drawn. Blank lines part the entries; values can stand above or below the compound they belong to.

How the values were obtained:
Experiment in all cases: in vitro antibacterial evaluation, MIC by broth dilution
Assay type in all cases: cell-based
Staphylococcus sp. = settings: broth dilution, 18 hours at 35° C.; for MIC Staphylococcus aureus (ATCC 29213): strain ATCC 29213; for MIC Staphylococcus aureus (GC 1131): strain GC 1131; for MIC Staphylococcus aureus (GC 3051): strain GC 3051; for MIC Staphylococcus aureus (GC 3053): strain GC 3053; for MIC Staphylococcus aureus (GC 4541): strain GC 4541; for MIC Staphylococcus aureus (GC 4542): strain GC 4542; for MIC Staphylococcus aureus (GC 4544): strain GC 4544; for MIC Staphylococcus aureus (GC 4545): strain GC 4545
Outline: (§1)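 Broth dilution per NCCLS M7-A2 in Mueller-Hinton II medium, inoculum 5×10^5 CFU/mL, antibiotic range 64-0.06 μg/mL. MIC taken as lowest concentration inhibiting growth; Gram-positive panel includes recent clinical isolates resistant to methicillin, penicillin and/or vancomycin.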

Streptococcus sp. = settings: broth dilution, 18 hours at 35° C.
Outline: as §1

Enterococcus sp. = settings: broth dilution, 18 hours at 35° C.
Outline: as §1

Escherichia coli = settings: 18 hours at 35° C.
Outline: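 Broth dilution MIC per NCCLS M7-A2 in Mueller-Hinton II medium, inoculum 5×10^5 CFU/mL, antibiotic range 64-0.06 μg/mL. MIC taken as lowest concentration inhibiting growth.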

[1] = Enterococcus faecalis (ATCC 29212)
[2] = Enterococcus faecalis (GC 4552)
[3] = Enterococcus faecalis (GC 4553)
[4] = Enterococcus faecalis (GC 4554)
[5] = Enterococcus faecalis (GC 6189)

MIC Coagulase Negative Staphylococcus (GC 4547) (Staphylococcus sp.): >128 µg/mL
MIC Coagulase Negative Staphylococcus (GC 4548) (Staphylococcus sp.): >128 µg/mL
MIC Coagulase Negative Staphylococcus (GC 4549) (Staphylococcus sp.): >128 µg/mL
MIC Coagulase Negative Staphylococcus (GC 4551) (Staphylococcus sp.): >128 µg/mL
MIC Staphylococcus aureus-SMITH (GC 4543) (Staphylococcus sp.): >128 µg/mL
MIC Staphylococcus aureus (ATCC 29213) (Staphylococcus sp.): >128 µg/mL
MIC Staphylococcus aureus (GC 1131) (Staphylococcus sp.): >128 µg/mL
MIC Staphylococcus aureus (GC 3051) (Staphylococcus sp.): >128 µg/mL
MIC Staphylococcus aureus (GC 3053) (Staphylococcus sp.): >128 µg/mL
MIC Staphylococcus aureus (GC 4541) (Staphylococcus sp.): >128 µg/mL
MIC Staphylococcus aureus (GC 4542) (Staphylococcus sp.): >128 µg/mL
MIC Staphylococcus aureus-SMITH (GC 4543) (Staphylococcus sp.; strain GC 4543): >128 µg/mL
MIC Staphylococcus aureus (GC 4544) (Staphylococcus sp.): >128 µg/mL
MIC Staphylococcus aureus (GC 4545) (Staphylococcus sp.): >128 µg/mL
MIC Coagulase Negative Staphylococcus (GC 4547) (Staphylococcus sp.; strain GC 4547): >128 µg/mL
MIC Coagulase Negative Staphylococcus (GC 4548) (Staphylococcus sp.; strain GC 4548): >128 µg/mL
MIC Coagulase Negative Staphylococcus (GC 4549) (Staphylococcus sp.; strain GC 4549): >128 µg/mL
MIC Coagulase Negative Staphylococcus (GC 4551) (Staphylococcus sp.; strain GC 4551): >128 µg/mL
MIC Streptococcus agalactiae (GC 4564) (Streptococcus sp.): >128 µg/mL
MIC Streptococcus pneumoniae (ATCC 6301) (Streptococcus sp.): >128 µg/mL
MIC Streptococcus pneumoniae (GC 1894) (Streptococcus sp.): 128 µg/mL (≈ 83.7 µM)
MIC Streptococcus pneumoniae (GC 4565) (Streptococcus sp.): >128 µg/mL
MIC Streptococcus pyogenes (GC 4563) (Streptococcus sp.): >128 µg/mL
MIC Streptococcus pneumoniae (ATCC 6301) (Streptococcus sp.; strain ATCC 6301): >128 µg/mL
MIC Streptococcus pneumoniae (GC 1894) (Streptococcus sp.; strain GC 1894): 128 µg/mL (≈ 83.7 µM)
MIC Streptococcus pyogenes (GC 4563) (Streptococcus sp.; strain GC 4563): >128 µg/mL
MIC Streptococcus agalactiae (GC 4564) (Streptococcus sp.; strain GC 4564): >128 µg/mL
MIC Streptococcus pneumoniae (GC 4565) (Streptococcus sp.; strain GC 4565): >128 µg/mL
MIC Enterococcus avium (GC 4558) (Enterococcus sp.; Enterococcus avium (GC 4558)): 128 µg/mL (≈ 83.7 µM)
MIC Enterococcus faecalis (ATCC 29212) (Enterococcus sp.; [1]): >128 µg/mL
MIC Enterococcus faecalis (GC 4552) (Enterococcus sp.; [2]): >128 µg/mL
MIC Enterococcus faecalis (GC 4553) (Enterococcus sp.; [3]): >128 µg/mL
MIC Enterococcus faecalis (GC 4554) (Enterococcus sp.; [4]): >128 µg/mL
MIC Enterococcus faecalis (GC 6189) (Enterococcus sp.; [5]): >128 µg/mL
MIC Enterococcus faecium (GC 2243) (Enterococcus sp.; Enterococcus faecium (GC 2243)): >128 µg/mL
MIC Enterococcus faecium (GC 4556) (Enterococcus sp.; Enterococcus faecium (GC 4556)): >128 µg/mL
MIC Enterococcus faecium (GC 4557) (Enterococcus sp.; Enterococcus faecium (GC 4557)): 128 µg/mL (≈ 83.7 µM)
MIC Enterococcus avium (GC 4558) (Enterococcus sp.): 128 µg/mL (≈ 83.7 µM)
MIC Enterococcus faecalis (ATCC 29212) (Enterococcus sp.): >128 µg/mL
MIC Enterococcus faecalis (GC 2242) (Enterococcus sp.): >128 µg/mL
MIC Enterococcus faecalis (GC 2691) (Enterococcus sp.): >128 µg/mL
MIC Enterococcus faecalis (GC 3059) (Enterococcus sp.): >128 µg/mL
MIC Enterococcus faecalis (GC 4552) (Enterococcus sp.): >128 µg/mL
MIC Enterococcus faecalis (GC 4553) (Enterococcus sp.): >128 µg/mL
MIC Enterococcus faecalis (GC 4554) (Enterococcus sp.): >128 µg/mL
MIC Enterococcus faecalis (GC 6189) (Enterococcus sp.): >128 µg/mL
MIC Enterococcus faecium (GC 2243) (Enterococcus sp.): >128 µg/mL
MIC Enterococcus faecium (GC 4556) (Enterococcus sp.): >128 µg/mL
MIC Enterococcus faecium (GC 4557) (Enterococcus sp.): 128 µg/mL (≈ 83.7 µM)
MIC Enterococcus faecalis (GC 2242) (Enterococcus sp.; strain GC 2242): >128 µg/mL
MIC Enterococcus faecalis (GC 2691) (Enterococcus sp.; strain GC 2691): >128 µg/mL
MIC Enterococcus faecalis (GC 3059) (Enterococcus sp.; strain GC 3059): >128 µg/mL
MIC Escherichia coli (ATCC 25922) (Escherichia coli): >128 µg/mL
MIC Escherichia coli (GC 4559) (Escherichia coli): >128 µg/mL
MIC Escherichia coli (GC 4560) (Escherichia coli): >128 µg/mL
Compound: CC(c1ccccc1)C1NC(=O)CNC(=O)C(CO)NC(=O)C(C(O)C2CN(c3nc4ccccc4o3)C(=N)N2C2OC(CO)C(O)C(O)C2O)NC(=O)C(C(O)C2CNC(=Nc3nc4ccccc4o3)N2)NC(=O)C(Cc2ccc(OC3OC(CO)C(OC4OC(CO)C(O)C(O)C4O)C(O)C3O)cc2)NC1=O (stereo not drawn) [Example 93, Cyclo[glycyl-β-methylphenylalanyl-O-(4-O-hexopyranosylhexopyranosyl)tyrosyl-3-[2-(1,3-benzoxazol-2-ylimino)imidazolidin-4-yl]seryl-3-[1-(1,3-benzoxaxol-2-yl)-3-hexopyranosyl-2-iminoimidazolidin-4-yl]serylseryl]]
MIC Staphylococcus haemolyticus (GC 4546) (Staphylococcus sp.): >128 µg/mL
MIC Staphylococcus haemolyticus (GC 4546) (Staphylococcus sp.; strain GC 4546): >128 µg/mL

MIC Coagulase Negative Staphylococcus (GC 4547) (Staphylococcus sp.): >64 µg/mL
MIC Coagulase Negative Staphylococcus (GC 4548) (Staphylococcus sp.): >64 µg/mL
MIC Coagulase Negative Staphylococcus (GC 4549) (Staphylococcus sp.): >64 µg/mL
MIC Coagulase Negative Staphylococcus (GC 4551) (Staphylococcus sp.): >64 µg/mL
MIC Staphylococcus aureus-SMITH (GC 4543) (Staphylococcus sp.): >64 µg/mL
MIC Staphylococcus aureus (ATCC 29213) (Staphylococcus sp.): >64 µg/mL
MIC Staphylococcus aureus (GC 1131) (Staphylococcus sp.): >64 µg/mL
MIC Staphylococcus aureus (GC 3051) (Staphylococcus sp.): >64 µg/mL
MIC Staphylococcus aureus (GC 3053) (Staphylococcus sp.): >64 µg/mL
MIC Staphylococcus aureus (GC 4541) (Staphylococcus sp.): >64 µg/mL
MIC Staphylococcus aureus (GC 4542) (Staphylococcus sp.): >64 µg/mL
MIC Staphylococcus aureus-SMITH (GC 4543) (Staphylococcus sp.; strain GC 4543): >64 µg/mL
MIC Staphylococcus aureus (GC 4544) (Staphylococcus sp.): >64 µg/mL
MIC Staphylococcus aureus (GC 4545) (Staphylococcus sp.): >64 µg/mL
MIC Coagulase Negative Staphylococcus (GC 4547) (Staphylococcus sp.; strain GC 4547): >64 µg/mL
MIC Coagulase Negative Staphylococcus (GC 4548) (Staphylococcus sp.; strain GC 4548): >64 µg/mL
MIC Coagulase Negative Staphylococcus (GC 4549) (Staphylococcus sp.; strain GC 4549): >64 µg/mL
MIC Coagulase Negative Staphylococcus (GC 4551) (Staphylococcus sp.; strain GC 4551): >64 µg/mL
MIC Streptococcus agalactiae (GC 4564) (Streptococcus sp.): >64 µg/mL
MIC Streptococcus pneumoniae (ATCC 6301) (Streptococcus sp.): >64 µg/mL
MIC Streptococcus pneumoniae (GC 1894) (Streptococcus sp.): >64 µg/mL
MIC Streptococcus pneumoniae (GC 4565) (Streptococcus sp.): >64 µg/mL
MIC Streptococcus pyogenes (GC 4563) (Streptococcus sp.): >64 µg/mL
MIC Streptococcus pneumoniae (ATCC 6301) (Streptococcus sp.; strain ATCC 6301): >64 µg/mL
MIC Streptococcus pneumoniae (GC 1894) (Streptococcus sp.; strain GC 1894): >64 µg/mL
MIC Streptococcus pyogenes (GC 4563) (Streptococcus sp.; strain GC 4563): >64 µg/mL
MIC Streptococcus agalactiae (GC 4564) (Streptococcus sp.; strain GC 4564): >64 µg/mL
MIC Streptococcus pneumoniae (GC 4565) (Streptococcus sp.; strain GC 4565): >64 µg/mL
MIC Enterococcus avium (GC 4558) (Enterococcus sp.; Enterococcus avium (GC 4558)): >64 µg/mL
MIC Enterococcus faecalis (ATCC 29212) (Enterococcus sp.; [1]): >64 µg/mL
MIC Enterococcus faecalis (GC 4552) (Enterococcus sp.; [2]): >64 µg/mL
MIC Enterococcus faecalis (GC 4553) (Enterococcus sp.; [3]): >64 µg/mL
MIC Enterococcus faecalis (GC 4554) (Enterococcus sp.; [4]): >64 µg/mL
MIC Enterococcus faecalis (GC 6189) (Enterococcus sp.; [5]): >64 µg/mL
MIC Enterococcus faecium (GC 2243) (Enterococcus sp.; Enterococcus faecium (GC 2243)): >64 µg/mL
MIC Enterococcus faecium (GC 4556) (Enterococcus sp.; Enterococcus faecium (GC 4556)): >64 µg/mL
MIC Enterococcus faecium (GC 4557) (Enterococcus sp.; Enterococcus faecium (GC 4557)): >64 µg/mL
MIC Enterococcus avium (GC 4558) (Enterococcus sp.): >64 µg/mL
MIC Enterococcus faecalis (ATCC 29212) (Enterococcus sp.): >64 µg/mL
MIC Enterococcus faecalis (GC 2242) (Enterococcus sp.): >64 µg/mL
MIC Enterococcus faecalis (GC 2691) (Enterococcus sp.): >64 µg/mL
MIC Enterococcus faecalis (GC 3059) (Enterococcus sp.): >64 µg/mL
MIC Enterococcus faecalis (GC 4552) (Enterococcus sp.): >64 µg/mL
MIC Enterococcus faecalis (GC 4553) (Enterococcus sp.): >64 µg/mL
MIC Enterococcus faecalis (GC 4554) (Enterococcus sp.): >64 µg/mL
MIC Enterococcus faecalis (GC 6189) (Enterococcus sp.): >64 µg/mL
MIC Enterococcus faecium (GC 2243) (Enterococcus sp.): >64 µg/mL
MIC Enterococcus faecium (GC 4556) (Enterococcus sp.): >64 µg/mL
MIC Enterococcus faecium (GC 4557) (Enterococcus sp.): >64 µg/mL
MIC Enterococcus faecalis (GC 2242) (Enterococcus sp.; strain GC 2242): >64 µg/mL
MIC Enterococcus faecalis (GC 2691) (Enterococcus sp.; strain GC 2691): >64 µg/mL
MIC Enterococcus faecalis (GC 3059) (Enterococcus sp.; strain GC 3059): >64 µg/mL
MIC Escherichia coli (ATCC 25922) (Escherichia coli): >64 µg/mL
MIC Escherichia coli (GC 4559) (Escherichia coli): >64 µg/mL
MIC Escherichia coli (GC 4560) (Escherichia coli): 64 µg/mL (≈ 41 µM)
Compound: CC(c1ccccc1)C1NC(=O)CNC(=O)C(CO)NC(=O)C(C(O)C2CN(c3nc4ccccc4s3)C(=N)N2C2OC(CO)C(O)C(O)C2O)NC(=O)C(C(O)C2CNC(=Nc3nc4ccccc4s3)N2)NC(=O)C(Cc2ccc(OC3OC(CO)C(OC4OC(CO)C(O)C(O)C4O)C(O)C3O)cc2)NC1=O (stereo not drawn) [Example 94, Cyclo[glycyl-β-methylphenylalanyl-O-(4-O-hexopyranosylhexopyranosyl)tyrosyl-3-[2-(1,3-benzothiazol-2-ylimino)imidazolidin-4-yl]seryl-3-[1-(1,3-benzo-thiazol-2-yl)-2-imino-3-hexopyranosylimidazolidin-4-yl]serylseryl]]
MIC Staphylococcus haemolyticus (GC 4546) (Staphylococcus sp.): >64 µg/mL
MIC Staphylococcus haemolyticus (GC 4546) (Staphylococcus sp.; strain GC 4546): >64 µg/mL
